Assay results as given in ChEMBL document CHEMBL1201862, “PubChem BioAssay data set” (2004).
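Briefly, cells in 96-well plates were exposed to five compound concentrations for 48 h, and endpoints were estimated by linear interpolation. Here, GI50 denotes the concentration required for 50% inhibition of growth.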 Calls of active or inactive are those of the source. No stated cut-off is given here; in the data, active = GI50 up to about 1.1 µM and inactive = higher.

Key:
Experiment in all cases: NCI-60 cell line screen, 48 h
DMS-273 = system: DMS-273
XF498 = system: XF498
LXFL 529 = system: LXFL 529
KM-20L2 = system: KM-20L2
M19-MEL = system: M19-MEL
DLD-1 = system: DLD-1
RXF 631 = system: RXF 631
DMS-114 = system: DMS-114
HOP-18 = system: HOP-18

Compound | GI50 (DMS-273) | GI50 (XF498) | GI50 (LXFL 529) | GI50 (KM-20L2) | GI50 (M19-MEL) | GI50 (DLD-1) | GI50 (RXF 631) | GI50 (DMS-114) | GI50 (HOP-18)
CC(C)C12C=CC(C)(CC1)n1c(=O)c3cc4ccccc4cc3c(=O)n12 (stereo not given) | 40.6 µM (inactive) | 26.4 µM (inactive) | 34 µM (inactive) | 31.7 µM (inactive) | 66.8 µM (inactive) | 38.7 µM (inactive) | 54.3 µM (inactive) | 41.9 µM (inactive) | 
Nc1nc(N)c2ncn(CCCC(c3ccccc3)P(=O)(O)O)c2n1 (stereo not given) | > 100 µM (inactive) |  | > 100 µM (inactive) | > 100 µM (inactive) | > 100 µM (inactive) | > 100 µM (inactive) |  | > 100 µM (inactive) | > 100 µM (inactive)
O=C1C=C(NCCc2ccccc2)c2ccccc2C1=O | 2.77 µM (inactive) |  | 5.86 µM (inactive) | 6.95 µM (inactive) | 0.276 µM (active) | 6.03 µM (inactive) |  | 1.92 µM (inactive) | 1.63 µM (inactive)
Oc1cc(-c2ccc[nH]2)nc2cc3c(cc12)OCO3 | 32.2 µM (inactive) | 21.1 µM (inactive) | 28.4 µM (inactive) |  | 39 µM (inactive) | 34.4 µM (inactive) | 47.5 µM (inactive) |  | 
Nc1ncc(CN2CCCC2)c(-c2ccccc2O)n1 | > 750 µM (inactive) | > 750 µM (inactive) | > 750 µM (inactive) | > 750 µM (inactive) | > 750 µM (inactive) | > 750 µM (inactive) |  | > 750 µM (inactive) | 433 µM (inactive)
COc1ccc(C=O)c([N+](=O)[O-])c1 | 25.4 µM (inactive) | 13.3 µM (inactive) |  | 14 µM (inactive) | 63.5 µM (inactive) |  | 57.7 µM (inactive) | 24 µM (inactive) | 38.8 µM (inactive)
COc1ccc(C2C(C)C(=O)C(C)C(c3ccc(OC)cc3)N2N=O)cc1 (stereo not given) | > 514 µM (inactive) | 166 µM (inactive) | > 750 µM (inactive) | > 925 µM (inactive) | > 750 µM (inactive) | > 1000 µM (inactive) | > 95.3 µM (inactive) | > 750 µM (inactive) | > 100 µM (inactive)
Cc1cc(-c2c(F)cc3c4nn([C@H]5CC[C@@H](N(C)C)CC5)c(=O)c-4cn(C4CC4)c3c2F)cc(C)n1 | 0.00594 µM (active) | 0.318 µM (active) | 0.0528 µM (active) | 0.14 µM (active) | 0.0891 µM (active) | 0.0428 µM (active) | 0.0355 µM (active) | 0.024 µM (active) | 0.197 µM (active)
O=[N+]([O-])c1nccn1COCCBr |  | > 100 µM (inactive) | > 100 µM (inactive) | > 100 µM (inactive) | > 100 µM (inactive) | > 100 µM (inactive) |  | > 100 µM (inactive) | 
CC(=O)NNc1nc(C)c(C(=O)NNC(=O)C(=O)Nc2ccc(C)cc2[N+](=O)[O-])s1 | > 100 µM (inactive) |  | > 100 µM (inactive) | > 100 µM (inactive) | 60.4 µM (inactive) | > 100 µM (inactive) | > 100 µM (inactive) | > 100 µM (inactive) | > 100 µM (inactive)
CC(C)c1ccccc1NC(=O)/C(Cl)=C1/Sc2ccccc2NC1=O |  |  | 14.5 µM (inactive) | 24.2 µM (inactive) | 34 µM (inactive) | 35.5 µM (inactive) | 34 µM (inactive) | 18.5 µM (inactive) | 
CCOC(=O)C1=C(C)N(NC(N)=O)C2(N)N(NC(N)=O)C(C)=C(C(=O)OCC)C12C(=O)OCC (stereo not given) | > 100 µM (inactive) | > 100 µM (inactive) | > 100 µM (inactive) | > 100 µM (inactive) | > 100 µM (inactive) | > 100 µM (inactive) |  | > 100 µM (inactive) | 
CCCCC(C(=O)CCC(=O)Nc1ccc(Cl)c(Cl)c1)C(=O)C(C)C (stereo not given) | 52.4 µM (inactive) |  | 34.8 µM (inactive) | > 100 µM (inactive) | > 100 µM (inactive) | > 100 µM (inactive) |  | > 100 µM (inactive) | > 100 µM (inactive)
Cc1c2cc[n+](C)c(C)c2cc2c1[nH]c1ccccc12 | 3.63 µM (inactive) |  |  | 4.99 µM (inactive) | 3.44 µM (inactive) | 10.5 µM (inactive) |  | 1.57 µM (inactive) | 0.586 µM (active)
CCOC(=O)C1(Cc2ccccc2)CCCCCN1 (stereo not given) | > 100 µM (inactive) |  | > 100 µM (inactive) | > 100 µM (inactive) | > 100 µM (inactive) | > 100 µM (inactive) | > 100 µM (inactive) | > 100 µM (inactive) | > 100 µM (inactive)
O=C(Nc1nnn[nH]1)c1nc(O)cc(-c2ccccc2)n1 |  | > 100 µM (inactive) | > 100 µM (inactive) | > 100 µM (inactive) | > 100 µM (inactive) | > 100 µM (inactive) |  | > 100 µM (inactive) | 
COc1ccc(/C=C2\C(=O)N(C(=O)c3ccc(NC(C)=O)cc3)N=C2C)cc1OC | > 100 µM (inactive) | > 100 µM (inactive) |  |  | > 100 µM (inactive) | > 100 µM (inactive) |  | > 100 µM (inactive) | 14.6 µM (inactive)
CC(=O)O[C@H]1C(=O)[C@@]2(C)[C@H]([C@H](OC(=O)c3ccccc3)[C@]3(O)C[C@H](OC(=O)[C@H](O)[C@@H](NC(=O)c4ccccc4)c4ccccc4)C(C)=C1C3(C)C)[C@]1(OC(C)=O)CO[C@@H]1C[C@@H]2O [PACLITAXEL] | 0.00313 µM (active) | 0.00348 µM (active) | 0.528 µM (active) |  |  | 0.0448 µM (active) |  |  | 0.157 µM (active)
COc1cc(-c2cccs2)sc1-c1cccs1 | 12.5 µM (inactive) |  | 45 µM (inactive) | 26.7 µM (inactive) | 32.8 µM (inactive) | 8.17 µM (inactive) |  | 30 µM (inactive) | 1.58 µM (inactive)
C[C@@H]1[C@H](c2ccccc2)O[B-]2(c3ccc(Br)cc3)OC(=O)C[N+]12C (stereo not given in full) |  | 97.1 µM (inactive) | 86.5 µM (inactive) | > 100 µM (inactive) | > 100 µM (inactive) | > 100 µM (inactive) | > 100 µM (inactive) | > 100 µM (inactive) | > 100 µM (inactive)
CCCCCCCCCCCCCC(=O)OCC1OC(=O)CC1O (stereo not given) | > 100 µM (inactive) | > 100 µM (inactive) | > 100 µM (inactive) | > 100 µM (inactive) |  | 34.8 µM (inactive) | > 100 µM (inactive) | 49.4 µM (inactive) | 0.437 µM (active)
CSC(=N\c1ccccc1)/N=C(\SCc1ccccc1)N(C)C | 0.59 µM (active) | 1.33 µM (inactive) | 0.454 µM (active) |  | 1.66 µM (inactive) |  | 1.38 µM (inactive) | 1.09 µM (active) | 0.774 µM (active)
Cc1cnc(NCCCN(C)C)c2c1[nH]c1ccc3cc(O)ccc3c12 | 0.462 µM (active) | 0.222 µM (active) | 0.142 µM (active) | 0.266 µM (active) | 0.383 µM (active) | 0.49 µM (active) |  | 0.0962 µM (active) | 1.43 µM (inactive)
CC(C)COC(=O)N1N=NC2C3OC(CC3=O)C21 (stereo not given) | > 100 µM (inactive) | > 100 µM (inactive) | > 100 µM (inactive) | > 100 µM (inactive) | > 100 µM (inactive) | > 100 µM (inactive) |  | > 100 µM (inactive) | > 100 µM (inactive)
CC1(CO)OC1COCc1ccccc1 (stereo not given) | > 100 µM (inactive) | > 100 µM (inactive) | > 100 µM (inactive) | > 100 µM (inactive) |  | > 100 µM (inactive) | > 100 µM (inactive) | > 100 µM (inactive) | 
O=c1[nH]cc(OCC(F)(F)F)c(=O)[nH]1 | > 100 µM (inactive) | > 100 µM (inactive) | > 100 µM (inactive) | > 100 µM (inactive) | > 100 µM (inactive) | > 100 µM (inactive) | > 100 µM (inactive) | > 100 µM (inactive) | > 100 µM (inactive)
COc1ccc(C2Oc3c(cc(O)c(OC)c3C)[C@@H]2C)cc1OC (stereo not given in full) | 47.6 µM (inactive) | 51.8 µM (inactive) | 65.9 µM (inactive) | > 100 µM (inactive) | 86.1 µM (inactive) | > 100 µM (inactive) | > 100 µM (inactive) | 33 µM (inactive) | > 100 µM (inactive)
COC1N(C2CC(O)C(CO)O2)C(=O)NC(=O)C1(F)Br (stereo not given) | 14.7 µM (inactive) | 17.3 µM (inactive) | 24.4 µM (inactive) | 16.6 µM (inactive) |  | 16.5 µM (inactive) | 6.84 µM (inactive) | 43.9 µM (inactive) | > 50 µM (inactive)
